# What was measured:
# HepG2 = assay: Cell viability assay (MTT), HepG2; assay type: cell-based
# Protocol: (§1) Cells in exponential growth phase were seeded in a 96 well plate at a concentration of 50,000 cell/well. The cells were allowed to attach to the wells for 24 h at 37° C., 5% CO2, then the culture medium was removed and 100 μL new culture medium containing 1 at gradient concentrations was placed into each well. After culturing at 37° C., 5% CO2 for desired time, each well was added by 10 μL of 5 mg/mL MTT 43-(4,5-Dimethylthiazol-2-yl)-2,5-diphenyltetrazolium bromide), and the plated cells were incubate at dark for 4 h. 100 μL 10% SDS with 0.01 M HCl was added to each well to stop the reduction reaction and to dissolve the purple. After incubation of the cells at 37° C. for overnight, the viability is measured. Data represent the mean±standard deviation of three independent experiments.
# (§2) The estimation of the threshold concentration of aggregation (320-340 μM) for 1 allows us to examine the cytotoxicity of 1 in monomer and molecular aggregate forms. We first tested the cytotoxicity of 1 towards HeLa cells, the most widely studied cancer cell line, below and above the threshold concentration.
# T98G = assay: Cell viability assay (MTT), T98G; assay type: cell-based
# Protocol: as §1, §2
# HeLa cells [1] = assay: FITC annexin V / PI staining of HeLa cells; assay type: cell-based; details: 400 μM, 36 h
# Source text: To determine the process of cell death induced by the aggregates of 1, we used FITC conjugated annexin V and propidium iodide (PI) to stain the cells (FIG. 3b). Being membrane impermeable, PI discriminates viable cells from late apoptotic or necrotic cells, and FITC conjugated annexin V binds to plasma membrane of apoptotic and necrotic cells as the former ones have extracellular exposed phosphatidylserine and the latter ones lose membrane integrity.
# [2] = Influence of surfactant Triton X-100 on hydrogel of 1; assay type: physicochemical; details: 1 at 10 mM
# Protocol: FIG. 14 depicts the influence of a surfactant on self-assembly of 1. Triton X-100 was mixed with 1 (10 mM) before and after hydrogel formation. The hydrogel of 1 can tolerate up to 0.1% Triton X-100. Treated with 0.1% Triton X-100, the fibrillar aggregates of 1 tend to cross-link with each other instead of randomly dispersing, but the width of fibrillar aggregates remains unchanged.
# HeLa cells [3] = assay: Cell migration assay of HeLa cells; assay type: cell-based; details: 18 h
# Protocol: FIG. 3 depicts the response of cancer cells toward molecular aggregates of 1. (a) Intracellular concentration of 1 in HeLa cells treated with 1 for 12 h at different temperatures measure by LC-MS (left bar=37° C.; right bar=4° C.). (b) Confocal images of FITC annexin V and PI stained HeLa cells without incubation with 1 (live cells), HeLa cells treated with 400 μM of 1 for 36 h, and necrotic HeLa cells (induced by DMSO). Scale bar=20 μm. (c) Fluorescence emission of 7-AAD and 1 in cell lysate (15,000 cell/mL) at λex=488 nm. (d) Cell cycle analysis, by flow cytometry, of HeLa cells treated with 0, 300 or 400 μM of 1 for 24 h. Depletion of G2/M phase occurs in cells treated with 400 μM of 1. (e) Cell migration assay of HeLa cells treated with 0, 300, 400 or 500 μM of 1. The gaps were created on the HeLa cells of 100% confluence in 24 well plates, and measured after incubation for 18 h.
# Because apoptosis associates with cell cycle, we examined the effect of the aggregates of 1 on the cell cycle. […] The cell-cycle distribution of the HeLa cells incubated with 400 μM of 1 indicates significant decrease of the peaks of S phase and G2/M phase. […] The slight right shift of the whole spectra results from the overlapping of emission of 7-AAD and 1 (FIG. 3c). But such shift barely hampers the distribution of cell-cycle of the spectra. The aggregates of 1 also delay the migration of the HeLa cells.
# U87MG = assay: Cell viability assay (MTT), U87MG; assay type: cell-based
# Protocol: as §1, §2
# microtubules = target: T1, microtubules (Sus scrofa, UniProt P02550+P02554); assay: Addition of 1 to fully assembled microtubules; assay type: biochemical; details: final concentration 200 to 500 μM, added after 60 min polymerization
# T1 construct: purchased Cytoskeleton
# T1 sequence (P02550 whole entry): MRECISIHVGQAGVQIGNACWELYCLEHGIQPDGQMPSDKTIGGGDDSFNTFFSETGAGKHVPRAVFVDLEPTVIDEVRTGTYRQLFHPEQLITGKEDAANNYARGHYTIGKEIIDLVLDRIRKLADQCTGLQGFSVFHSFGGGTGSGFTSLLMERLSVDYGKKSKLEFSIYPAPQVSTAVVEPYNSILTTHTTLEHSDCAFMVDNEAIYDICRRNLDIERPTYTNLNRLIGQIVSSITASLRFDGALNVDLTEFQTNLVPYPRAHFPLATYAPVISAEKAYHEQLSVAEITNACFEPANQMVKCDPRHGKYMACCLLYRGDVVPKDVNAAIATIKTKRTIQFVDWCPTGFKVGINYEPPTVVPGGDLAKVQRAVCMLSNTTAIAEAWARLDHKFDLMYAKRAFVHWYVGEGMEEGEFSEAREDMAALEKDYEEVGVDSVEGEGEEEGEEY
# T1 sequence (P02554 whole entry): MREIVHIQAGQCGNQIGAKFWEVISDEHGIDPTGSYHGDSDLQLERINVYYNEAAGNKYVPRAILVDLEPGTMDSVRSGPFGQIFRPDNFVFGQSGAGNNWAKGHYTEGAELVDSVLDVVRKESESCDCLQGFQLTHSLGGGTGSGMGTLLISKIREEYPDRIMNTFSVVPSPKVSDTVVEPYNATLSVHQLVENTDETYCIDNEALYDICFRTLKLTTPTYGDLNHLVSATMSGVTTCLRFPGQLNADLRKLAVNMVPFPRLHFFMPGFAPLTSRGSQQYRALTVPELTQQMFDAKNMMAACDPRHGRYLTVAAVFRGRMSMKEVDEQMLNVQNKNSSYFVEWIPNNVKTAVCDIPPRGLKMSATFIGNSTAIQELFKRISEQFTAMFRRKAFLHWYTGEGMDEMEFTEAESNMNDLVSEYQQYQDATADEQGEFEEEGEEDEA
# Source text: Tubulin polymerization assay in the presence of 1. In vitro tubulin polymerization reactions in (a) as prepared or (c) filtered reaction cocktail without 1 (control) or with different concentrations of 1. The amount of microtubule is in proportion to optical density at 340 nm. The calculated polymerization rate (Vmax) and the final tubulin polymer mass vs concentrations of 1 from tubulin polymerization in (b) as prepared or (d) filtered reaction cocktail. Negative stained TEM images of molecular aggregates of 1 binding with tubulin. Buffer (control) or 1 (final concentration at 200 to 500 μM) was introduced into reaction cocktail containing fully assembled microtubule (after 60 min of polymerization). The amount of microtubule remain unchanged after 30 min. (e) Molecular aggregates of 1 (400 μM) incubated with tubulins heterodimers in general tubulin buffer. Scale bar=40 nm. White arrows point at tubulin clusters on the molecular aggregates of 1. […]
# Microtubules are highly dynamic, growing and shrinking at a constant rate. To determine whether molecular aggregates of 1 achieve the inhibition of microtubule formation through preventing microtubule growth or accelerating microtubule shrinkage, we applied 1 to the polymerization mixture after most of tubulin heterodimers already formed microtubules (60 min of pre-incubation) and monitored the change of microtubules.
# PC12 = assay: Cell viability assay (MTT), PC12 neuronal cell line; assay type: cell-based
# Protocol: (§3) FIG. 10 depicts the long term cytotoxicity of 1 on PC12 cells. Related to FIG. 2. (a) MTT viability test of cell incubated with gradient concentration of 1 for up to 7 days without changing medium. Data are presented as mean±SD of three independent experiments. (b) Intracellular concentration of 1 in PC12 cells treated with 1 for 12 h at 37° C. measured by LC-MS (left bar=400 μM; right bar=300 μM). (c) Cells were subcultured and re-seeded with new medium containing the same concentration of 1 (0 for control group and 400 μM for test group) every 4 days. Data are presented as mean±SD of three independent experiments.
# as §1, §2
# [4] = as above; assay type: cell-based; details: rat, PC12 cells; 400 and 500 μM, 7 days
# Protocol: as §3, §1, §2
compound,measurement,setting,value
O=C(Cc1ccc2ccccc2c1)N[C@@H](Cc1ccccc1)C(=O)N[C@@H](Cc1ccccc1)C(=O)O [Compound 1],cytotoxicity towards HepG2,HepG2,decreases of cell viabilities only observed at 400 and 500 μM
same,cytotoxicity towards T98G,T98G,decreases of cell viabilities only observed at 400 and 500 μM
same,process of cell death,HeLa cells [1],induce apoptosis
same,Triton X-100 tolerated by the hydrogel,[2],up to 0.1 % Triton X-100
same,gap coverage by migrating cells,HeLa cells [3]; 300 μM,47 % of the gaps
same,gap coverage by migrating cells,HeLa cells [3]; 400 or 500 μM,27 % of the gaps
same,cytotoxicity towards U87MG,U87MG,decreases of cell viabilities only observed at 400 and 500 μM
same,loss of preformed microtubules,microtubules,little notable loss of microtubules
same,"viability of PC12 cells, constant supply of 1","PC12; 400 μM, after 7 days, re-seeded with new medium every 4 days",significant loss of cell viability
same,toxicity towards PC12,PC12; 400 and 500 μM,little toxicity
same,viability at 7 days,[4],> 60%
